Test results: ChEMBL document CHEMBL1147624, “Inhibitors of hepatitis C virus NS3.4A protease 2. Warhead SAR and optimization” (Bioorg Med Chem Lett, 2004)
Where a SMILES comes first, the peptide text is derived from it. [ ]: non-standard residue; d: D form. The star is where a group is joined. Pyrazinecarbonyl = O=C(c1cnccn1)*; Hyp = O=C(O)[C@@H]1C[C@@H](O)CN1; Abu = CC[C@H](N)C(=O)O; Bn = c1ccc(C*)cc1

Legend:
NS3 = NS3 (Hepatitis C virus, UniProt A3EZJ3); experiment: Binding inhibition of hepatitis C virus NS3.4A protease 2 using p-nitroaniline assay (pNA); design: species or system Hepacivirus hominis
Chain of NS3 (A3EZJ3 whole entry): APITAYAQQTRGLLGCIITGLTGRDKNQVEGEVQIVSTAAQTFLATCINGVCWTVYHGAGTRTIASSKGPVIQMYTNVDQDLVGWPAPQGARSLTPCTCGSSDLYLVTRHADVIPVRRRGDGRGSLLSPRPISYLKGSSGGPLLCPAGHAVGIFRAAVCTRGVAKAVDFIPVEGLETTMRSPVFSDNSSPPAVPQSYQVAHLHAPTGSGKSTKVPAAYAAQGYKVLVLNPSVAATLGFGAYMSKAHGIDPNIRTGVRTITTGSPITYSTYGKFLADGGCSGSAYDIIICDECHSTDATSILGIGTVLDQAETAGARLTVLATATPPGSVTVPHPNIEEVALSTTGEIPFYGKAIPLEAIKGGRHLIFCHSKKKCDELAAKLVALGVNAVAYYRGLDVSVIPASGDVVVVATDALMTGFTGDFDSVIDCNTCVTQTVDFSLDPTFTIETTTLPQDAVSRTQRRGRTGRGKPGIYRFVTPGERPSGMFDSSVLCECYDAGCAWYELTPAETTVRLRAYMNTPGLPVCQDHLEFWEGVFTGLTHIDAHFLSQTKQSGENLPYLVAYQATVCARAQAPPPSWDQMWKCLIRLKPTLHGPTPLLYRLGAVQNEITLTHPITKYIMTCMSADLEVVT

[1] = biological target: T1, Hepatitis C virus serine protease, NS3/NS4A (Hepatitis C virus, UniProt D2K2A8+A3EZI9); experiment: Binding inhibition of hepatitis C virus NS3.4A protease 2 using a reverse phase HPLC based assay; type: protein-complex assay, Hepacivirus hominis
T1 sequence (D2K2A8 whole entry): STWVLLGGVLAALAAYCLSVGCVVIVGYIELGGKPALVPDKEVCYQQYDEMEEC
T1 sequence (A3EZI9 whole entry): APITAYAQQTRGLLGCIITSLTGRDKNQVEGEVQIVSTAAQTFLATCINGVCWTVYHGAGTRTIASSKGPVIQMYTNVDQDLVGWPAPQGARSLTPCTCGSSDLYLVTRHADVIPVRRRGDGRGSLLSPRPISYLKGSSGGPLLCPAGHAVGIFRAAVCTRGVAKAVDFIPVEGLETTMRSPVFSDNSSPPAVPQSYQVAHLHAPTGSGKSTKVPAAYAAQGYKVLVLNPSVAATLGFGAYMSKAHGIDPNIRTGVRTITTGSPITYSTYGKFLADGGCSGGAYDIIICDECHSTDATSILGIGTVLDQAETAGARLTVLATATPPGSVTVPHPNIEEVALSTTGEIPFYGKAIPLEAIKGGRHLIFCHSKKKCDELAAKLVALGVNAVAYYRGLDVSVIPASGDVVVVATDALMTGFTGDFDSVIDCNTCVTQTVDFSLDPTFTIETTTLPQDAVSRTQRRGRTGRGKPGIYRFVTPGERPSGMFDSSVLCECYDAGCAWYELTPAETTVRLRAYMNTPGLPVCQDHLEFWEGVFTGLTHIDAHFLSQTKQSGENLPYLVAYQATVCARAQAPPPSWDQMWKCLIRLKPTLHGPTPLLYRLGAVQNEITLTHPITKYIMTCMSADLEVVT

[2] = biological target: T1, Hepatitis C virus serine protease, NS3/NS4A; experiment: Binding inhibition of hepatitis C virus NS3.4A protease 2 using p-nitroaniline assay (pNA); <0.2 (0.18); type: protein-complex assay, Hepacivirus hominis
Huh-7 [3] = experiment: Reduction of HCV RNA in 48 hr compound treated Huh 7 cells was determined by quantitative RT-PCR-based […] assay; type: functional; details: Homo sapiens, Huh-7, 48 h
[4] = biological target: T1, Hepatitis C virus serine protease, NS3/NS4A; experiment: Binding inhibition of hepatitis C virus NS3.4A protease 2 using p-nitroaniline assay (pNA); <0.2 (0.10); type: protein-complex assay, Hepacivirus hominis
Huh-7 [5] = experiment: Cytotoxicity of compound was determined by MTS-based cell viability assay in Huh 7 cells; type: functional; details: Homo sapiens
[6] = biological target: T1, Hepatitis C virus serine protease, NS3/NS4A; experiment: Binding inhibition of hepatitis C virus NS3.4A protease 2 using p-nitroaniline assay (pNA); <0.2 (0.15); type: protein-complex assay, Hepacivirus hominis
[7] = biological target: T1, Hepatitis C virus serine protease, NS3/NS4A; experiment: Binding inhibition of hepatitis C virus NS3.4A protease 2 using a reverse phase HPLC based assay; <0.2 (0.15); type: protein-complex assay, Hepacivirus hominis
[8] = biological target: T1, Hepatitis C virus serine protease, NS3/NS4A; experiment: Binding inhibition of hepatitis C virus NS3.4A protease 2 was determined; type: protein-complex assay, Hepacivirus hominis
[9] = biological target: T1, Hepatitis C virus serine protease, NS3/NS4A; experiment: Binding inhibition of hepatitis C virus NS3.4A protease 2 using p-nitroaniline assay (pNA); <0.2 (0.03); type: protein-complex assay, Hepacivirus hominis

Compound | Ki (NS3) | IC50 (Huh-7 [3]) | CC50 (Huh-7 [5]) | also measured
CCCC(NC(=O)[C@@H]1C[C@@H](OC(=O)N2CCc3ccccc3C2)CN1C(=O)[C@H](NC(=O)[C@H](NC(=O)c1cnccn1)C(C)C)C(C)C)C(=O)C(=O)N[C@@H](C)C(=O)c1cccc2ccccc12 (stereo partly drawn) |  |  |  | IC50 [1]: 750 nM; Ki [2]: < 200 nM
CCC(NC(=O)[C@@H]1C[C@@H](OCc2ccccc2)CN1C(=O)[C@H](NC(=O)[C@H](NC(=O)c1cnccn1)C(C)C)C(C)C)C(=O)C(F)(F)F (stereo partly drawn) | > 50000 nM |  |  | 
CCCC(NC(=O)[C@@H]1C[C@@H](OC(=O)N2CCc3ccccc3C2)CN1C(=O)[C@H](NC(=O)[C@H](NC(=O)c1cnccn1)C(C)C)C(C)C)C(=O)C(=O)N[C@@H](C)c1ccccc1 (stereo partly drawn) |  | > 310 nM | > 16000 nM | IC50 [1]: 220 nM; Ki [4]: < 200 nM
CCCC(NC(=O)[C@@H]1C[C@@H](OC(=O)N2CCc3ccccc3C2)CN1C(=O)[C@H](NC(=O)[C@H](NC(=O)c1cnccn1)C(C)C)C(C)C)C(=O)C(=O)NCC(=O)O (stereo partly drawn) |  | > 10000 nM | > 100000 nM | Ki [6]: < 200 nM; IC50 [7]: 37 nM
CC[C@@H](C=O)NC(=O)[C@@H]1CC(OC(=O)C2CCc3ccccc3C2)CN1C(=O)[C@@H](NC(=O)[C@@H](NC(=O)c1cnccn1)C(C)C)C(C)C (stereo partly drawn) |  |  |  | Ki [8]: 890 nM
CCCC(NC(=O)[C@@H]1C[C@@H](OC(=O)N2CCc3ccccc3C2)CN1C(=O)[C@H](NC(=O)[C@H](NC(=O)c1cnccn1)C(C)C)C(C)C)C(=O)C(=O)NC1CC1 (stereo partly drawn) |  | > 2300 nM | > 100000 nM | IC50 [1]: 420 nM; Ki [6]: < 220 nM
CC[C@H](NC(=O)[C@@H]1C[C@@H](OCc2ccccc2)CN1C(=O)[C@@H](NC(=O)[C@@H](NC(=O)c1cnccn1)C(C)C)C(C)C)C(=O)C(C)=O | 50000 nM |  |  | 
CCC(NC(=O)[C@@H]1C[C@@H](OCc2ccccc2)CN1C(=O)[C@H](NC(=O)[C@H](NC(=O)c1cnccn1)C(C)C)C(C)C)C(=O)CCl (stereo partly drawn) | > 50000 nM |  |  | 
CCCC(NC(=O)[C@@H]1C[C@@H](OC(=O)N2CCc3ccccc3C2)CN1C(=O)[C@H](NC(=O)[C@H](NC(=O)c1cnccn1)C(C)C)C(C)C)C(=O)C(=O)NCc1ccccc1 (stereo partly drawn) |  | > 3200 nM | > 30000 nM | IC50 [1]: 220 nM; Ki [6]: < 200 nM
CC[C@H](NC(=O)[C@@H]1C[C@@H](OCc2ccccc2)CN1C(=O)[C@@H](NC(=O)[C@@H](NC(=O)c1cnccn1)C(C)C)C(C)C)C(=O)c1nnc(-c2ccccc2)o1 | 35000 nM |  |  | 
CC[C@H](NC(=O)[C@@H]1C[C@@H](OCc2ccccc2)CN1C(=O)[C@@H](NC(=O)[C@@H](NC(=O)c1cnccn1)C(C)C)C(C)C)C(=O)C(=O)N[C@@H](C)c1ccccc1 [listing 2 of 2 here] |  |  | > 100000 nM | 
CCCC(NC(=O)[C@@H]1C[C@@H](OC(=O)N2CCc3ccccc3C2)CN1C(=O)[C@H](NC(=O)[C@H](NC(=O)c1cnccn1)C(C)C)C(C)C)C(=O)C(=O)NC(C)C(=O)O (stereo partly drawn) |  |  |  | IC50 [1]: 130 nM; Ki [2]: 200 nM
CC[C@H](NC(=O)[C@@H]1C[C@@H](OCc2ccccc2)CN1C(=O)[C@@H](NC(=O)[C@@H](NC(=O)c1cnccn1)C(C)C)C(C)C)C(=O)O (Pyrazinecarbonyl-VV[Hyp](Bn)[Abu]-OH) | > 50000 nM |  |  | 
CCOC(=O)C(F)(F)C(=O)C(CC)NC(=O)C1CC(OCc2ccccc2)CN1C(=O)[C@H](NC(=O)[C@H](NC(=O)c1cnccn1)C(C)C)C(C)C (single isomer, unassigned) | > 50000 nM |  |  | 
CCCC(NC(=O)[C@@H]1CC(OC(=O)N2CCc3ccccc3C2)CN1C(=O)[C@H](NC(=O)[C@H](NC(=O)c1cnccn1)C(C)C)C(C)C)C(=O)C(=O)c1ccccc1 (single isomer, unassigned) |  | > 10000 nM | > 100000 nM | IC50 [1]: 26 nM; Ki [9]: < 200 nM

Continued, in another order:

Ki (NS3) | IC50 (Huh-7 [3]) | Compound | CC50 (Huh-7 [5]) | also measured
17500 nM |  | CCC(NC(=O)[C@@H]1C[C@@H](OCc2ccccc2)CN1C(=O)[C@H](NC(=O)[C@H](NC(=O)c1cnccn1)C(C)C)C(C)C)C(=O)C(F)(F)C(F)(F)F (stereo partly drawn) |  | 
5230 nM |  | CCCC(NC(=O)[C@@H]1C[C@@H](OC(=O)N2CCc3ccccc3C2)CN1C(=O)[C@H](NC(=O)[C@H](NC(=O)c1cnccn1)C(C)C)C(C)C)C(=O)C(=O)N(C)CC(=O)O (stereo partly drawn) |  | 
4000 nM |  | CC[C@H](NC(=O)[C@@H]1C[C@@H](OCc2ccccc2)CN1C(=O)[C@@H](NC(=O)[C@@H](NC(=O)c1cnccn1)C(C)C)C(C)C)C(=O)C(=O)NCc1ccccc1 |  | 
540 nM |  | CCCC(NC(=O)[C@@H]1C[C@@H](OC(=O)N2CCc3ccccc3C2)CN1C(=O)[C@H](NC(=O)[C@H](NC(=O)c1cnccn1)C(C)C)C(C)C)C(=O)C(=O)NC(CO)C(=O)O (stereo partly drawn) |  | 
32000 nM |  | CC[C@H](NC(=O)[C@@H]1C[C@@H](OCc2ccccc2)CN1C(=O)[C@@H](NC(=O)[C@@H](NC(=O)c1cnccn1)C(C)C)C(C)C)C(=O)C(=O)N1CCCC1 |  | 
10000 nM |  | CC[C@H](NC(=O)[C@@H]1C[C@@H](OCc2ccccc2)CN1C(=O)[C@@H](NC(=O)[C@@H](NC(=O)c1cnccn1)C(C)C)C(C)C)C(=O)C(=O)c1ccccc1 |  | 
800 nM | > 10200 nM | CCCC(NC(=O)[C@@H]1C[C@@H](OC(=O)N2CCc3ccccc3C2)CN1C(=O)[C@H](NC(=O)[C@H](NC(=O)c1cnccn1)C(C)C)C(C)C)C(=O)C(=O)NC1CCC1 (stereo partly drawn) | > 100000 nM | 
2700 nM |  | CC[C@H](NC(=O)[C@@H]1C[C@@H](OCc2ccccc2)CN1C(=O)[C@@H](NC(=O)[C@@H](NC(=O)c1cnccn1)C(C)C)C(C)C)C(=O)C(=O)C(C)C |  | 
1120 nM |  | CCCC(NC(=O)[C@@H]1C[C@@H](OC(=O)N2CCc3ccccc3C2)CN1C(=O)[C@H](NC(=O)[C@H](NC(=O)c1cnccn1)C(C)C)C(C)C)C(=O)C(=O)NCC#N (stereo partly drawn) |  | 
17000 nM |  | CC[C@H](NC(=O)[C@@H]1C[C@@H](OCc2ccccc2)CN1C(=O)[C@@H](NC(=O)[C@@H](NC(=O)c1cnccn1)C(C)C)C(C)C)C(=O)C(=O)N[C@H](C)c1ccccc1 |  | 
4720 nM |  | CCCC(NC(=O)[C@@H]1C[C@@H](OC(=O)N2CCc3ccccc3C2)CN1C(=O)[C@H](NC(=O)[C@H](NC(=O)c1cnccn1)C(C)C)C(C)C)C(=O)C(=O)NCc1ccco1 (stereo partly drawn) |  | 
520 nM | > 10000 nM | CCCC(NC(=O)[C@@H]1C[C@@H](OC(=O)N2CCc3ccccc3C2)CN1C(=O)[C@H](NC(=O)[C@H](NC(=O)c1cnccn1)C(C)C)C(C)C)C(=O)C(=O)NC(C)C (stereo partly drawn) | > 100000 nM | 
210 nM | > 10000 nM | CCCC(NC(=O)[C@@H]1C[C@@H](OC(=O)N2CCc3ccccc3C2)CN1C(=O)[C@H](NC(=O)[C@H](NC(=O)c1cnccn1)C(C)C)C(C)C)C(=O)C(=O)NCCc1ccccc1 (stereo partly drawn) | > 100000 nM | IC50 [1]: 520 nM
5760 nM |  | CCCC(NC(=O)[C@@H]1C[C@@H](OC(=O)N2CCc3ccccc3C2)CN1C(=O)[C@H](NC(=O)[C@H](NC(=O)c1cnccn1)C(C)C)C(C)C)C(=O)C(=O)NCC(=N)N (stereo partly drawn) |  | 
920 nM | > 4800 nM | CC[C@H](NC(=O)[C@@H]1C[C@@H](OCc2ccccc2)CN1C(=O)[C@@H](NC(=O)[C@@H](NC(=O)c1cnccn1)C(C)C)C(C)C)C(=O)C(=O)N[C@@H](C)c1ccccc1 [listing 1 of 2 here] |  | 
6900 nM |  | CCCC(NC(=O)[C@@H]1C[C@@H](OC(=O)N2CCc3ccccc3C2)CN1C(=O)[C@H](NC(=O)[C@H](NC(=O)c1cnccn1)C(C)C)C(C)C)C(=O)C(=O)NC(C)(C)C (stereo partly drawn) |  | 
1630 nM |  | CCCC(NC(=O)[C@@H]1C[C@@H](OC(=O)N2CCc3ccccc3C2)CN1C(=O)[C@H](NC(=O)[C@H](NC(=O)c1cnccn1)C(C)C)C(C)C)C(=O)C(=O)N(CC(=O)O)c1ccccc1 (stereo partly drawn) |  | 
290 nM | > 10000 nM | CCCC(NC(=O)[C@@H]1C[C@@H](OC(=O)N2CCc3ccccc3C2)CN1C(=O)[C@H](NC(=O)[C@H](NC(=O)c1cnccn1)C(C)C)C(C)C)C(=O)C(=O)NCc1nnn[nH]1 (stereo partly drawn) | > 100000 nM | 
16000 nM |  | CC[C@@H](C=O)NC(=O)[C@@H]1C[C@@H](OCc2ccccc2)CN1C(=O)[C@@H](NC(=O)[C@@H](NC(=O)c1cnccn1)C(C)C)C(C)C (Pyrazinecarbonyl-VV[Hyp](Bn)[Abu]-aldehyde) |  | 
1600 nM |  | CCCC(NC(=O)[C@@H]1CC(OC(=O)N2CCc3ccccc3C2)CN1C(=O)[C@H](NC(=O)[C@H](NC(=O)c1cnccn1)C(C)C)C(C)C)C(=O)C(=O)N1C[C@@H]1c1ccccc1 (single isomer, unassigned) |  | 
430 nM | > 10000 nM | CCCC(NC(=O)[C@@H]1CC(OC(=O)N2CCc3ccccc3C2)CN1C(=O)[C@H](NC(=O)[C@H](NC(=O)c1cnccn1)C(C)C)C(C)C)C(=O)C(=O)Cc1ccccc1 (single isomer, unassigned) | > 100000 nM | 
970 nM | > 10300 nM | CCCC(NC(=O)[C@@H]1CC(OC(=O)N2CCc3ccccc3C2)CN1C(=O)[C@H](NC(=O)[C@H](NC(=O)c1cnccn1)C(C)C)C(C)C)C(=O)C(=O)N1CCC1 (single isomer, unassigned) | > 100000 nM | 
